Reference: patent US20220402935A1, “HETEROCYCLIC COMPOUND” (FIMECS, INC., priority 2019, published 2022)

Molecular target: T1, IRAK-M (Homo sapiens, UniProt Q9Y616)
T1 sequence (Q9Y616 1-596): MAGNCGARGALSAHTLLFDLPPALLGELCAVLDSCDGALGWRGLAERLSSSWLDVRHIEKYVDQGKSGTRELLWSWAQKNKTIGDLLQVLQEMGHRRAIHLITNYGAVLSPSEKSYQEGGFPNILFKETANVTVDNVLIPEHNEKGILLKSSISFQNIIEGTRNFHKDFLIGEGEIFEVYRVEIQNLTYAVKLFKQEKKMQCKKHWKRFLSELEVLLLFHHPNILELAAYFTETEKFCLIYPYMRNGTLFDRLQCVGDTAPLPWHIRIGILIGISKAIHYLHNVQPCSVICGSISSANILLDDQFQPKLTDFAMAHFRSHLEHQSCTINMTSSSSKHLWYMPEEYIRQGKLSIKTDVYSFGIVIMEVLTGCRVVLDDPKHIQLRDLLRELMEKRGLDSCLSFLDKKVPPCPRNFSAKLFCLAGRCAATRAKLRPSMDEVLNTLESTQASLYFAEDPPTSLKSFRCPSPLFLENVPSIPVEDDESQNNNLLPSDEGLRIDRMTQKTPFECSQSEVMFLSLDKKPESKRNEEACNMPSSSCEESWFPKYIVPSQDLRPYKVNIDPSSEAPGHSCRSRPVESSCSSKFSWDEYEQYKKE
Assay: IRAK-M binding inhibitory activity (KINOMEscan active site-dependent competitive assay)
Set-up: purchased Eurofins Discover X
Settings: for remaining binding at 1 µM: concentration of the test compound 1 μM, first symbol of cell, read-out: IRAK-M binding inhibition activity % Ctrl; for IC50: second symbol of cell, read-out: IRAK-M binding inhibition IC50 value
Method: IRAK-M binding inhibitory activity was evaluated using active site-dependent competitive assay KINOMEscan® provided by Eurofins Discover X (Goldstein, D. M. et al. High-throughput kinase profiling as a platform for drug discovery. Nat. Rev. Drug Discovery. 7, 391-397 (2008)). IRAK-M binding inhibitory activity of the test compound was evaluated. […] The “% Ctrl” is calculated by the following formula.
(test compound signal−positive control compound signal)/(negative control compound signal−positive control compound signal)×100
Negative control compound=DMSO (100 Ctrl)
Positive control compound=control compound (0%×Ctrl)

remaining binding at 1 µM	IC50	SMILES
25 to 50%		O=S(=O)(c1ccc(F)cc1)N1CCC(Oc2ncnc3ccsc23)CC1 [Ref. example 53, 4-((1-((4-fluorophenyl)sulfonyl)piperidin-4-yl)oxy)thieno[3,2-d]pyrimidine]
≥ 75%		NC(=O)c1ccc(Nc2nc(Cl)nc3ccsc23)cc1 [Ref. example 33, 4-((2-chlorothieno[3,2-d]pyrimidin-4-yl)amino)benzamide]
< 25%		C=CCOc1cc(C(C)N2CCC(Oc3ccnc4cc(C)sc34)CC2)on1 (stereo not drawn) [Ref. example 8, 3-(allyloxy)-5-(1-(4-((2-methylthieno[3,2-b]pyridin-7-yl)oxy)piperidin-1-yl)ethyl)isoxazole (enantiomer)]
≥ 75%		CN1CCC(Oc2ncnc3cc(-c4cnn(C)c4)sc23)CC1 [Ref. example 31, 6-(1-methyl-1H-pyrazol-4-yl)-4-((1-methylpiperidin-4-yl)oxy)thieno[3,2-d]pyrimidine]
50 to 75%		c1ccc(-c2cc3ncnc(NCc4cccnc4)c3s2)cc1 [Ref. example 16, 6-phenyl-N-(pyridin-3-ylmethyl)thieno[3,2-d]pyrimidin-4-amine]
< 25%		O=S(=O)(c1ccccc1Oc1ccc(F)cc1)N1CCC(Oc2ncnc3ccsc23)CC1 [Ref. example 48, 4-((1-((2-(4-fluorophenoxy)phenyl)sulfonyl)piperidin-4-yl)oxy)thieno[3,2-d]pyrimidine]
25 to 50%		O=S(=O)(c1cccc(Cl)c1)N1CCC(Oc2ncnc3ccsc23)CC1 [Ref. example 57, 4-((1-((3-chlorophenyl)sulfonyl)piperidin-4-yl)oxy)thieno[3,2-d]pyrimidine]
	0.1 to 0.3 µM	C=CCOc1cc(CN2CCC(Oc3ccnc4ccsc34)CC2)on1 [Ref. example 3]
25 to 50%		O=S(=O)(c1cccc(F)c1)N1CCC(Oc2ncnc3ccsc23)CC1 [Ref. example 56, 4-((1-((3-fluorophenyl)sulfonyl)piperidin-4-yl)oxy)thieno[3,2-d]pyrimidine]
25 to 50%		Cc1ccc(NS(=O)(=O)c2ccc(CNC(=O)COCCOCCOCCOc3cc(CN4CCC(Oc5ccnc6ccsc56)CC4)on3)cc2)c2[nH]cc(C#N)c12 [Example 69, N-(4-(N-(3-cyano-4-methyl-1H-indol-7-yl)sulfamoyl)benzyl)-2-(2-(2-(2-((5-((4-(thieno[3,2-b]pyridin-7-yloxy)piperidin-1-yl)methyl)isoxazol-3-yl)oxy)ethoxy)ethoxy)ethoxy)acetamide]
	< 0.03 µM	C=CCOc1cc(C(C)N2CCC(Oc3ccnc4ccsc34)CC2)on1 (stereo not shown) [Ref. example 83, 3-(allyloxy)-5-(1-(4-(thieno[3,2-b]pyridin-7-yloxy)piperidin-1-yl)ethyl)isoxazole]
≥ 75%		c1ccc(CCNc2ncnc3cc(-c4ccccc4)sc23)cc1 [Ref. example 17, N-phenethyl-6-phenylthieno[3,2-d]pyrimidin-4-amine]
≥ 75%		Cc1ncsc1-c1ccc(CNC(=O)[C@@H]2C[C@@H](O)CN2C(=O)[C@H](C(C)C)N2Cc3ccccc3C2=O)c(OCCOCCOCCOCCOc2cc(CN3CCC(Oc4ccnc5ccsc45)CC3)on2)c1 [Example 64, (2S,4R)-4-hydroxy-1-((S)-3-methyl-2-(1-oxoisoindolin-2-yl)butanoyl)-N-(4-(4-methylthiazol-5-yl)-2-(2-(2-(2-(2-((5-((4-(thieno[3,2-b]pyridin-7-yloxy)piperidin-1-yl)methyl)isoxazol-3-yl)oxy)ethoxy)ethoxy)ethoxy)ethoxy)benzyl)pyrrolidine-2-carboxamide]
25 to 50%		Cn1nc(O)cc1CN1CCC(Oc2ccnc3ccsc23)CC1 [Ref. example 68, 1-methyl-5-((4-(thieno[3,2-b]pyridin-7-yloxy)piperidin-1-yl)methyl)-1H-pyrazol-3-ol]
	0.03 to 0.1 µM	C#CCOc1cc(CN2CCC(Oc3ccnc4ccsc34)CC2)on1 [Ref. example 71, 3-(prop-2-yn-1-yloxy)-5-((4-(thieno[3,2-b]pyridin-7-yloxy)piperidin-1-yl)methyl)isoxazole]
≥ 75%		c1ccc(Nc2ncnc3cc(-c4ccccc4)sc23)cc1 [Ref. example 12, N,6-diphenylthieno[3,2-d]pyrimidin-4-amine]
50 to 75%		Cc1nn(C)cc1CN1CCC(Oc2ccnc3ccsc23)CC1 [Ref. example 74, 7-((1-((1,3-dimethyl-1H-pyrazol-4-yl)methyl)piperidin-4-yl)oxy)thieno[3,2-b]pyridine]

remaining binding at 1 µM	IC50	SMILES
≥ 75%		CN1CCC(Oc2ncnc3cc(I)sc23)CC1 [Ref. example 36, 6-iodo-4-((1-methylpiperidin-4-yl)oxy)thieno[3,2-d]pyrimidine]
	0.1 to 0.3 µM	C=CCOc1cc(CN2CCC(Oc3ccnc4ccsc34)CC2)n(C)n1 [Ref. example 69, 7-((1-((3-(allyloxy)-1-methyl-1H-pyrazol-5-yl)methyl)piperidin-4-yl)oxy)thieno[3,2-b]pyridine]
≥ 75%		C#Cc1cc2ncnc(OC3CCN(C)CC3)c2s1 [Ref. example 32, 6-ethynyl-4-((1-methylpiperidin-4-yl)oxy)thieno[3,2-d]pyrimidine]
< 25%		O=S(=O)(CCc1ccccc1)N1CCC(Oc2ncnc3ccsc23)CC1 [Ref. example 63, 4-((1-(phenethylsulfonyl)piperidin-4-yl)oxy)thieno[3,2-d]pyrimidine]
	0.03 to 0.1 µM	C=CCOc1cc(C(C)N2CCC(Oc3ccnc4ccsc34)CC2)on1 (single isomer, unassigned) [Ref. example 5, 3-(allyloxy)-5-(1-(4-(thieno[3,2-b]pyridin-7-yloxy)piperidin-1-yl)ethyl)isoxazole (enantiomer)]
25 to 50%		Cc1ccc(S(=O)(=O)N2CCC(Oc3ncnc4ccsc34)CC2)cc1 [Ref. example 55, 4-((1-(4-methylbenzenesulfonyl)piperidin-4-yl)oxy)thieno[3,2-d]pyrimidine]
< 25%		O=S(=O)(c1ccc(Cl)cc1)N1CCC(Oc2ncnc3ccsc23)CC1 [Ref. example 52, 4-((1-((4-chlorophenyl)sulfonyl)piperidin-4-yl)oxy)thieno[3,2-d]pyrimidine]
	0.03 to 0.1 µM	C=CCOc1cc(CN2CCC(Oc3ccnc4cc(C)sc34)CC2)on1 [Ref. example 72, 3-(allyloxy)-5-((4-((2-methylthieno[3,2-b]pyridin-7-yl)oxy)piperidin-1-yl)methyl)isoxazole]
≥ 75%		CCOc1ccc(Nc2ncnc3ccsc23)cc1 [Ref. example 65, N-(4-ethoxyphenyl)thieno[3,2-d]pyrimidin-4-amine]
50 to 75%		O=C(Cn1cccn1)N1CCC(Oc2ccnc3ccsc23)CC1 [Ref. example 81, 2-(1H-pyrazol-1-yl)-1-(4-(thieno[3,2-b]pyridin-7-yloxy)piperidin-1-yl)ethan-1-one]
	0.1 to 0.3 µM	C=CCOc1cc(C(C)N2CCC(Oc3ccnc4ccsc34)CC2)on1 (single isomer, unassigned) [Ref. example 6, 3-(allyloxy)-5-(1-(4-(thieno[3,2-b]pyridin-7-yloxy)piperidin-1-yl)ethyl)isoxazole (enantiomer)]
25 to 50%		Cc1ccc(NS(=O)(=O)c2ccc(CNC(=O)COCCOCCOc3cc(CN4CCC(Oc5ccnc6ccsc56)CC4)on3)cc2)c2[nH]cc(C#N)c12 [Example 68, N-(4-(N-(3-cyano-4-methyl-1H-indol-7-yl)sulfamoyl)benzyl)-2-(2-(2-((5-((4-(thieno[3,2-b]pyridin-7-yloxy)piperidin-1-yl)methyl)isoxazol-3-yl)oxy)ethoxy)ethoxy)acetamide]
50 to 75%		O=C(Cn1nccn1)N1CCC(Oc2ccnc3ccsc23)CC1 [Ref. example 82, 1-(4-(thieno[3,2-b]pyridin-7-yloxy)piperidin-1-yl)-2-(2H-1,2,3-triazol-2-yl)ethan-1-one]
50 to 75%		c1nc(Nc2ccc3cn[nH]c3c2)c2sccc2n1 [Ref. example 28, N-(1H-indazol-6-yl)thieno[3,2-d]pyrimidin-4-amine]
≥ 75%		Cc1cnn(C)c1S(=O)(=O)N1CCC(Oc2ncnc3ccsc23)CC1 [Ref. example 61, 4-((1-((1,4-dimethyl-1H-pyrazol-5-yl)sulfonyl)piperidin-4-yl)oxy)thieno[3,2-d]pyrimidine]
25 to 50%		Cn1nccc1CN1CCC(Oc2ccnc3ccsc23)CC1 [Ref. example 77, 7-((1-((1-methyl-1H-pyrazol-5-yl)methyl)piperidin-4-yl)oxy)thieno[3,2-b]pyridine]
25 to 50%		c1csc(CN2CCC(Oc3ccnc4ccsc34)CC2)n1 [Ref. example 79, 7-((1-(thiazol-2-ylmethyl)piperidin-4-yl)oxy)thieno[3,2-b]pyridine]
